The assay concerns the target T1, human NaV1.8 (Homo sapiens, UniProt Q9Y5Y9).
T1 construct: expressed in transfected cells
Description: Nav1.8 Qube® Assay (automated 384-well patch-clamp, inhibition of sodium current). It counts as cell-based. The settings on record: human NaV1.8 channels stably expressed in HEK 293 cells, room temperature. In short, it runs like this: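 Whole-cell voltage clamp at room temperature in HEK293 cells stably expressing NaV1.8; from −90 mV hold, 10 s 1 Hz train of 20 ms pulses to 10 mV with 980 ms repolarization to −67 mV. Peak currents of 1st and 10th pulses give resting and inactivated-state IC50s, Hill fit.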
T1 sequence (Q9Y5Y9 whole entry): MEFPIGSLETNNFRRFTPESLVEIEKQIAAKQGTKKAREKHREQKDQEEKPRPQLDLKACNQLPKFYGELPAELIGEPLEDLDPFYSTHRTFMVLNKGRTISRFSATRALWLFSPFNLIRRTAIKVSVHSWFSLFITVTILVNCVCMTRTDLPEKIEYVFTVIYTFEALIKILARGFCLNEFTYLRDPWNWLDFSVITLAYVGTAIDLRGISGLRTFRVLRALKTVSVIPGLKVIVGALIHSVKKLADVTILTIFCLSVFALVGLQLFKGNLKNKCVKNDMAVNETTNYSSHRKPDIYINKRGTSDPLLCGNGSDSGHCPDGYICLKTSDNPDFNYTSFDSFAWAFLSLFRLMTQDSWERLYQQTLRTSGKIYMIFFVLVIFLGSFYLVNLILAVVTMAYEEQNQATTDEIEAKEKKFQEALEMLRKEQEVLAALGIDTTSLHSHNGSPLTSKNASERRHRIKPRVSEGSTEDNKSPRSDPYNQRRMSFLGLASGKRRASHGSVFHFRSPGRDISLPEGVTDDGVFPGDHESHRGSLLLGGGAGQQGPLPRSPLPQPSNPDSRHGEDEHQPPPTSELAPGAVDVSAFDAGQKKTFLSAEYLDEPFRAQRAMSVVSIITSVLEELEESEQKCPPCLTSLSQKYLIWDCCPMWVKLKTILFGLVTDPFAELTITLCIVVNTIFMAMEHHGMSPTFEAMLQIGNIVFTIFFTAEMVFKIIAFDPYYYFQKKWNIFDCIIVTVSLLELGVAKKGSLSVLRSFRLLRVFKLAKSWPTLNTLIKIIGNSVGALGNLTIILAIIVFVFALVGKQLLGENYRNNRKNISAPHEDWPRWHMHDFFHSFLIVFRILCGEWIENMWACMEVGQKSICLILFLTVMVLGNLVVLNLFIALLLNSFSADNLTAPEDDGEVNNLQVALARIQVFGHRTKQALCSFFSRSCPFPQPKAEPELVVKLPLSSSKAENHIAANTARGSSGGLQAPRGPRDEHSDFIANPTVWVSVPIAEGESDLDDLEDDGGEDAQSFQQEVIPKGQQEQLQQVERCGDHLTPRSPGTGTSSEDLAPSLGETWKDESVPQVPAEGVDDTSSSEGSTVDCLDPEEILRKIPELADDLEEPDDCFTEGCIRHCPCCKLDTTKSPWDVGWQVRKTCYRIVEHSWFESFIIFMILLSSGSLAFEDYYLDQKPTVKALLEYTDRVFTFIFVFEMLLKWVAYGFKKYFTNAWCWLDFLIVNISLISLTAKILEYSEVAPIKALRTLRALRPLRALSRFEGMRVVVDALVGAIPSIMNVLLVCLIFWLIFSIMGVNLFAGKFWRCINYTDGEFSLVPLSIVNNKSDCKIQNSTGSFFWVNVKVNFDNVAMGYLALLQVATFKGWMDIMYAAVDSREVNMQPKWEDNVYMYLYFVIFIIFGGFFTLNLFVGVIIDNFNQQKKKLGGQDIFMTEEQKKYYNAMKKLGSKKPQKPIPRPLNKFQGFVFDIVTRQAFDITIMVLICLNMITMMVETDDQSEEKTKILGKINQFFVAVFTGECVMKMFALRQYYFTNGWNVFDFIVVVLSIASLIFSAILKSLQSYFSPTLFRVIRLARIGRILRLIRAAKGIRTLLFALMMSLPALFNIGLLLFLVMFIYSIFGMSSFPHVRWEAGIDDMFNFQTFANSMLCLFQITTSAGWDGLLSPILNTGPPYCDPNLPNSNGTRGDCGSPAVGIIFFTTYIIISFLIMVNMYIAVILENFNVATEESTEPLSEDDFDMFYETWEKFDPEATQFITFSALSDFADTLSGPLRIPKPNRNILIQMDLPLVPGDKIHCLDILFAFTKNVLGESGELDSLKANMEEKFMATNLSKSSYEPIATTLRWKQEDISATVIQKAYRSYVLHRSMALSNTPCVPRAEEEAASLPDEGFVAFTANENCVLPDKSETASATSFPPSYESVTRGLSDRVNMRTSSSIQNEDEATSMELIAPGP
Take `C[C@@H]1C(=O)NCCN1C(=O)NC(c1ccc(Cl)c(C(F)F)c1)C1CCC(C(F)(F)F)CC1` (single isomer, unassigned) [Example 37B, (2R)-N-((R or S)-(4-chloro-3-(difluoro-methyl)phenyl)(trans-4-(trifluoromethyl)cyclohexyl)methyl)-2-methyl-3-oxopiperazine-1-carboxamide]: inhibition was half-maximal at 145 nM (IC50).

Consider `C[C@@H]1C(=O)NCCN1C(=O)NC(c1ccc(Cl)cc1)C1CCN(CC(F)(F)F)CC1` (single isomer, unassigned) [Example 16B, (2R)-N-((S or R)-(4-chlorophenyl)(1-(2,2,2-trifluoroethyl)piperidin-4-yl)methyl)-2-methyl-3-oxopiperazine-1-carboxamide], for which the IC50 (in general, the midpoint of a concentration-inhibition curve) was determined as 936 nM.

Take `C[C@@H]1C(=O)NCCN1C(=O)NC(c1ccc(OC(F)(F)F)c(Cl)c1)C1CC(C(F)(F)F)C1` (single isomer, unassigned) [Example 54B, (2R)-N-((S or R)-(3-chloro-4-(trifluoro-methoxy)phenyl)(3-(trifluoromethyl)cyclo-butyl)methyl)-2-methyl-3-oxopiperazine-1-carboxamide]: the 50% inhibitory concentration (IC50) was 4.18 nM.

`C[C@@H]1C(=O)NCCN1C(=O)NC(c1ccc(F)c(Cl)c1)C12CC(C(F)(F)F)(C1)C2` (single isomer, unassigned) [Example 35B, (2R)-N-((S or R)-(3-chloro-4-fluoro-phenyl)(3-(trifluoro-methyl)bicyclo[1.1.1]pen-tan-1-yl)methyl)-2-methyl-3-oxopiperazine-1-carboxamide] gave a concentration for half-maximal inhibition (IC50) of 48.6 nM.

Regarding `Cc1cc(C(NC(=O)N2CCNC(=O)[C@H]2C)C2CCC(C(F)(F)F)CC2)ccc1F` (single isomer, unassigned) [Example 36A], the IC50 came out at 55.7 nM.

In turn, `C[C@@H]1C(=O)NCCN1C(=O)NC(c1ccc(F)c(Cl)c1F)C1CC(C)(C)C1` (single isomer, unassigned) [Example 31B, (2R)-N-((S or R)-(3-chloro-2,4-difluoro-phenyl)(3,3-dimethyl-cyclobutyl)methyl)-2-methyl-3-oxopiperazine-1-carboxamide] yielded an IC50 of 71 nM.

As to `C[C@@H]1C(=O)NCCN1C(=O)NC(c1ccc(F)c(Cl)c1F)C1CC(C2CC2)C1` (single isomer, unassigned) [Example 21C, (2R)-N-((S or R)-(3-chloro-2,4-difluoro-phenyl)(trans or cis-3-cyclopropyl-cyclobutyl)-methyl)-2-methyl-3-oxopiperazine-1-carboxamide], the 50% inhibitory concentration (IC50) turned out to be 59.7 nM.

For `C[C@@H]1C(=O)NCCN1C(=O)NC(c1ccc(F)c(Cl)c1)C1CC(OCC(F)(F)F)C1` (single isomer, unassigned) [Example 44A, (2R)—N—((R or S)-(3-chloro-4-fluorophenyl)(cis-3-(2,2,2-trifluoroethoxy)cyclobutyl)methyl)-2-methyl-3-oxopiperazine-1-carboxamide], the half-inhibitory concentration (IC50) worked out at 90.5 nM.

For `C[C@@H]1C(=O)NCCN1C(=O)NC(c1ccc(F)c(Cl)c1)C1CCN(CC(F)(F)F)CC1` (single isomer, unassigned) [Example 15B], the 50% inhibitory concentration (IC50) worked out at 553 nM.

`C[C@@H]1C(=O)NCCN1C(=O)NC(c1ccc(F)c(F)c1)[C@H]1CC[C@H](C(F)(F)F)CC1` (single isomer, unassigned) [Example 8B, (2R)-N-((S or R)-(3,4-difluoro-phenyl)(trans-4-(trifluoromethyl)cyclo-hexyl)methyl)-2-methyl-3-oxo-piperazine-1-carboxamide]: the half-inhibitory concentration (IC50) stood at 13.2 nM.

On to `C[C@@H]1C(=O)NCCN1C(=O)NC(c1ccc(F)c(Cl)c1F)C1CC12CC2` (single isomer, unassigned) [Example 41B, (2R)-N-((S or R)-(3-chloro-2,4-difluoro-phenyl)((R or S)-spiro[2.2]pentan-1-yl)methyl)-2-methyl-3-oxopiperazine-1-carboxamide], for which the half-maximal inhibitory concentration (IC50) stood at 1180 nM.

As to `C[C@@H]1C(=O)NCCN1C(=O)NC(c1cccc(Cl)c1F)[C@H]1C[C@H](C(F)(F)F)C1` (single isomer, unassigned) [Example 53A, (2R)-N-((R or S)-(3-chloro-2-fluorophenyl)-(trans-3-(trifluoro-methyl)cyclobutyl)meth-yl)-2-methyl-3-oxo-piperazine-1-carboxamide], the IC50 came to 538 nM.

As to `C[C@@H]1C(=O)NCCN1C(=O)NC(C)(c1ccc(F)c(Cl)c1)C1CC(C(F)(F)F)C1` (single isomer, unassigned) [Example 48A, (2R)—N—((R or S)-1-(3-chloro-4-fluorophenyl)-1-(cis-3-(trifluoromethyl)cyclobutyl)ethyl)-2-methyl-3-oxopiperazine-1-carboxamide], the IC50 was 4370 nM.

In the case of `O=C1CN(C(=O)NC(c2ccc(F)c(Cl)c2)C2CC3CCC(C2)C3(F)F)CCN1` (single isomer, unassigned) [Example 2A, N-((R or S)-(3-chloro-4-fluoro-phenyl)(8,8-difluoro-bicyclo[3.2.1]octan-3-yl)methyl)-3-oxopiperazine-1-carboxamide], inhibition was half-maximal at 65.5 nM (IC50).

In turn, `O=C1CN(C(=O)NC(c2ccc(Cl)c(C(F)(F)F)n2)C2CCC(C(F)(F)F)CC2)CCN1` (single isomer, unassigned) [Example 45A] came in with an IC50 of 283 nM.

The compound `C[C@@H]1C(=O)NCCN1C(=O)NC(c1cc(F)c(F)c(F)c1)[C@H]1CC[C@H](C(F)(F)F)CC1` (single isomer, unassigned) [Example 6B, (R)-2-methyl-3-oxo-N-((S or R)-(trans-4-(trifluoromethyl)cyclo-hexyl)(3,4,5-tri-fluorophenyl)methyl) piperazine-1-carboxamide] yielded a half-inhibitory concentration (IC50) of 35.4 nM.

Consider `O=C1CN(C(=O)NC(c2ccc(F)c(C(F)(F)F)c2)[C@H]2C[C@H](C(F)(F)F)C2)CCN1` (single isomer, unassigned) [Example 52B, N-((S or R)-(4-fluoro-3-(trifluoromethyl)phenyl) (trans-3-(trifluoro-methyl)cyclobutyl)-methyl)-3-oxo-piperazine-1-carboxamide], for which 11.8 nM corresponded to half-maximal inhibition (IC50).

Regarding `C[C@@H]1C(=O)NCCN1C(=O)NC(c1ccc(Cl)c(C(F)F)c1)C1CCC(C(F)(F)F)CC1` (single isomer, unassigned) [Example 37C, (2R)-N-((S or R)-(4-chloro-3-(difluoro-methyl)phenyl)(cis-4-(trifluoromethyl)cyclohexyl)methyl)-2-methyl-3-oxopiperazine-1-carboxamide], the IC50 came out at 27.2 nM.

Compound `O=C1CN(C(=O)N[C@H](c2ccc(Cl)cc2)C2CCC(C(F)(F)F)CC2)CCN1` (single isomer, unassigned) [Example 4B, N-((S or R)-(4-chlorophenyl)(trans-4-(trifluoromethyl)-cyclohexyl)methyl)-3-oxopiperazine-1-carboxamide] displayed an IC50 of 288 nM.

`C[C@@H]1C(=O)NCCN1C(=O)NC(c1ccc(F)c(Cl)c1F)C1COc2ccccc2C1` (single isomer, unassigned) [Example 62C, (R)—N—((S or R)-(3-chloro-2,4-difluorophenyl)((R or S)-chroman-3-yl)methyl)-2-methyl-3-oxopiperazine-1-carboxamide] displayed an IC50 of 488 nM.

The compound `C[C@@H]1C(=O)NCCN1C(=O)NC(c1ccc(F)c(Cl)c1F)C1CCC(F)(F)CC1` (single isomer, unassigned) [Example 13A, (2R)-N-((R or S)-(3-chloro-2,4-difluoro-phenyl)(4,4-difluoro-cyclohexyl)methyl)-2-methyl-3-oxo-piperazine-1-carboxamide] gave an IC50 of 13.4 nM.

Consider `C=C1CC(C(NC(=O)N2CCNC(=O)[C@H]2C)c2ccc(F)c(Cl)c2F)C1` (single isomer, unassigned) [Example 25A, (2R)-N-((R or S)-(3-chloro-2,4-difluoro-phenyl)(3-methylene-cyclobutyl)methyl)-2-methyl-3-oxopiperazine-1-carboxamide], for which inhibition was half-maximal at 10.4 nM (IC50).

On to `C[C@@H]1C(=O)NCCN1C(=O)NC(c1cccc(Cl)c1F)[C@H]1C[C@H](C(F)(F)F)C1` (single isomer, unassigned) [Example 53B, (2R)-N-((S or R)-(3-chloro-2-fluorophenyl)-(trans-3-(trifluoro-methyl)cyclobutyl)meth-yl)-2-methyl-3-oxo-piperazine-1-carboxamide], for which the IC50 was 9.06 nM.

Compound `O=C1CN(C(=O)N[C@H](c2ccc(Cl)cc2)C2CCC(C(F)(F)F)CC2)CCN1` (single isomer, unassigned) [Example 4A, N-((R or S)-(4-chlorophenyl)(trans-4-(trifluoromethyl)-cyclohexyl)methyl)-3-oxopiperazine-1-carboxamide] had a concentration for half-maximal inhibition (IC50) of 89.3 nM.

Regarding `C[C@@H]1C(=O)NCCN1C(=O)NC(c1ccc(F)c(C(F)(F)F)c1)[C@H]1C[C@H](C(F)(F)F)C1` (single isomer, unassigned) [Example 51A, (2R)-N-((R or S)-(4-fluoro-3-(trifluoro-methyl)phenyl)(trans-3-(trifluoro-methyl)-cyclo-butyl)methyl)-2-methyl-3-oxo-piperazine-1-carboxamide], the IC50 was 117 nM.

Compound `C[C@@H]1C(=O)NCCN1C(=O)NC(c1ccc(F)c(Cl)c1)C1CC(OCC(F)(F)F)C1` (single isomer, unassigned) [Example 44C, (2R)—N—((R or S)-(3-chloro-4-fluorophenyl)(trans-3-(2,2,2-trifluoroethoxy)cyclobutyl)methyl)-2-methyl-3-oxopiperazine-1-carboxamide] came in with an IC50 of 172 nM.

Turning to `C[C@@H]1C(=O)NCCN1C(=O)NC(c1ccc(F)c(Cl)c1)C1CC(OC(F)F)C1` (single isomer, unassigned) [Example 38D, (2R)-N-((S or R)-(3-chloro-4-fluorophenyl)-(trans-3-(difluoro-methoxy)cyclobutyl)-methyl)-2-methyl-3-oxopiperazine-1-carboxamide], the IC50 stood at 17.9 nM.

These data come from patent US20220380338A1, “CYCLOALKYL 3-OXOPIPERAZINE CARBOXAMIDES AND CYCLOHETEROALKYL 3-OXOPIPERAZINE CARBOXAMIDES AS NAV1.8 INHIBITORS” (Merck Sharp & Dohme LLC, priority 2021, published 2022).
